# Experimental data as given in patent US20160305924A1 (LAGUNA PHARMACEUTICALS , INC., priority 2013, published 2016).
# What was measured:
# Type in all cases: in vivo, human
# [1] = Example 1: plasma concentrations of vanoxerine and metabolites after a 300 mg dose (LC-MS/MS); settings: for High concentration group average (plasma concentration): 10 patients high concentration group; for Low concentration group average (plasma concentration): 15 patients low concentration group; for Concentrations (plasma): mean of 25 patients
# Protocol: Each patient gave samples before administration of their dose, and then again at nine further time points, 30 minutes after administration, 1, 2, 3, 4, 6, 8, 12, and 24 hours post administration.
# Evaluation of samples: A total of 270 human plasma samples were received (in duplicate). The samples were shipped frozen over dry ice. The samples were stored at −70° C. (nominal) until analysis.
# Frozen samples were thawed at room temperature. Samples, calibrators, QC samples, sample blanks (blank plasma) and reagent blanks (water) were processed at room temperature. To 200 μL aliquots of each sample, calibrator, and QC sample are added 20 μL of 500 ng/mL of internal standard solution. A sample blank (blank plasma) and reagent blank (water) were also prepared, but without addition of internal standard solution (20 μL of diluent was added instead). To each sample, 200 μL of 1% ammonium hydroxide solution were added and vortex mixed. 3.0 mL of methyl tert-butyl ether were added and then vortex mix for 30 seconds. The sample is then centrifuged for 5 minutes at 4000 rpm and then transferred for about 30 minutes at −70° C. (nominal). The upper (organic) layer was transferred into an evaporation tubes and then evaporated under N2 stream at −50° C. for about 20 min. Samples were then reconstituted in 1000 μL reconstitution solution (80:20:0.1 water: acetonitrile: formic acid). Samples were mixed, allow to stand for about 3 minutes and mixed again. 900 μL of the sample solution was transferred to a 1.5 mL microcentrifuge tube and centrifuged for 5 minutes at 14000 rpm at room temperature. 800 μL of the sample solution was transferred to a glass autosampler vial, and then transferred to the autosampler for analysis. Samples were separated using reversed-phase liquid chromatography with a C18 column.
# Chromatographic conditions were as follows: • HPLC instrument: Waters Alliance e2795 HT with temperature controlled autosampler • Column: Waters XBridge C18 3.5μ 100×2.1 mm P.N. 186003022, Lot No. 0143302711 with an appropriate guard column • Column temperature: 45° C. • Autosampler temp. 5° C. • Flow: 0.3 mL/min • Mobile phase A: 10 mM ammonium formate buffer:MeOH:ACN 80:10:10 • Mobile phase B: 10 mM ammonium formate buffer:MeOH:ACN 5:50:45 • Purge solvent: Water:ACN:formic acid 50:50:0.1 • Wash solvent: Water:ACN:formic acid 50:50:0.1 • Injection volume: 20 μL • Run Time: 15 minutes
# Detection was based on electro-spray interface in positive mode (ESI+) LC-MS/MS technique, using Micromass Quattro Premier XE MS/MS detector with MassLynx and QuanLynx software version 4.1. […] The MRM transition for all hydroxyl metabolites was m/z 467→203.
# [2] = Example 2: daily doses for 11 consecutive days, PK and hemodynamics
# [3] = Example 3: daily doses for 14 days after a standardized meal, serum levels and adverse events
# Protocol: A standardized meal was served 15 minutes prior to each dosing.
# [4] = Example 4: daily doses for 7 days, hemodynamics and steady state; settings: 50, 100, 150 mg daily, all patients
# [5] = tested on: recent onset symptomatic AF/AFL; test: Example 5: double-blinded placebo-controlled study, conversion to sinus rhythm
# Description: (§1) The vanoxerine or identical appearing placebo was randomly assigned and administered in a double-blinded fashion.
# [6] = Example 5: adverse events
# Description: as §1
# [7] = 0.5 h post administration, 1.00 = below LLOQ
molecule,measurement,setting,value
16-hydroxyl vanoxerine [M02],High concentration group average (plasma concentration),"[1]; 0.5 h, 1.00 = below LLOQ",1.00 ng/mL
same,High concentration group average (plasma concentration),"[1]; 1 h, 1.00 = below LLOQ",1.00 ng/mL
same,High concentration group average (plasma concentration),"[1]; 6 h, 1.00 = below LLOQ",1.00 ng/mL
same,High concentration group average (plasma concentration),"[1]; 8 h, 1.00 = below LLOQ",1.00 ng/mL
same,High concentration group average (plasma concentration),"[1]; 12 h, 1.00 = below LLOQ",1.00 ng/mL
same,High concentration group average (plasma concentration),[1]; 24 h,0.00 ng/mL
same,Low concentration group average (plasma concentration),"[1]; 0.5 h, 1.00 = below LLOQ",1.00 ng/mL
same,Low concentration group average (plasma concentration),"[1]; 2 h, 1.00 = below LLOQ",1.00 ng/mL
same,Low concentration group average (plasma concentration),"[1]; 3 h, 1.00 = below LLOQ",1.00 ng/mL
same,Low concentration group average (plasma concentration),"[1]; 4 h, 1.00 = below LLOQ",1.00 ng/mL
same,Low concentration group average (plasma concentration),"[1]; 6 h, 1.00 = below LLOQ",1.00 ng/mL
same,Low concentration group average (plasma concentration),"[1]; 8 h, 1.00 = below LLOQ",1.00 ng/mL
same,Low concentration group average (plasma concentration),"[1]; 12 h, 1.00 = below LLOQ",1.00 ng/mL
same,Low concentration group average (plasma concentration),"[1]; 24 h, 1.00 = below LLOQ",1.00 ng/mL
same,Concentrations (plasma),[1]; [7],1.00 ng/mL
same,Concentrations (plasma),"[1]; 1 h, 1.00 = below LLOQ",1.02 ng/mL
same,Concentrations (plasma),"[1]; 2 h, 1.00 = below LLOQ",1.02 ng/mL
same,Concentrations (plasma),"[1]; 3 h, 1.00 = below LLOQ",1.01 ng/mL
same,Concentrations (plasma),"[1]; 4 h, 1.00 = below LLOQ",1.01 ng/mL
same,Concentrations (plasma),"[1]; 6 h, 1.00 = below LLOQ",1.00 ng/mL
same,Concentrations (plasma),"[1]; 8 h, 1.00 = below LLOQ",1.00 ng/mL
same,Concentrations (plasma),"[1]; 12 h, 1.00 = below LLOQ",1.00 ng/mL
same,Concentrations (plasma),"[1]; 24 h, 1.00 = below LLOQ",1.00 ng/mL
17-hydroxyl vanoxerine [M01],High concentration group average (plasma concentration),"[1]; 2 h, 1.00 = below LLOQ",28.00 ng/mL
same,Low concentration group average (plasma concentration),"[1]; 8 h, 1.00 = below LLOQ",5.30 ng/mL
same,Concentrations (plasma),[1]; [7],1.93 ng/mL
same,Concentrations (plasma),"[1]; 1 h, 1.00 = below LLOQ",7.51 ng/mL
same,Concentrations (plasma),"[1]; 2 h, 1.00 = below LLOQ",19.65 ng/mL
same,Concentrations (plasma),"[1]; 3 h, 1.00 = below LLOQ",18.68 ng/mL
same,Concentrations (plasma),"[1]; 4 h, 1.00 = below LLOQ",16.42 ng/mL
same,Concentrations (plasma),"[1]; 6 h, 1.00 = below LLOQ",11.48 ng/mL
same,Concentrations (plasma),"[1]; 8 h, 1.00 = below LLOQ",8.98 ng/mL
same,Concentrations (plasma),"[1]; 12 h, 1.00 = below LLOQ",6.30 ng/mL
same,Concentrations (plasma),"[1]; 24 h, 1.00 = below LLOQ",3.66 ng/mL
"Fc1ccc(C(OCCN2CCN(CCCc3ccccc3)CC2)c2ccc(F)cc2)cc1 [Vanoxerine, 1-[2-[bis(4-fluorophenyl)methoxy]ethyl]-4-(3-phenylpropyl)piperazine]",T1/2 range,[2]; 50 mg daily for 11 days,(4.71-110.57) hr
same,T1/2 range,[2]; 75 mg daily for 11 days,(10.26-116.67) hr
same,steady state reached,"[2]; 50, 75 and 100 mg daily",≤ 8 days
same,Tmax,"[2]; human, plasma, printed in the Dose column under 50 mg, read-out: TMax range",0.5 to 2 h
same,steady-state serum levels versus dose,"[3]; 25, 75, 125 mg daily",disproportionately and statistically greater levels at higher doses
same,adverse events,"[3]; 25, 75, 125 mg daily for 14 days, healthy patients",No significant adverse events
same,steady state levels achieved,[4],within one week
same,Efficacy: Percent conversion,"[5]; 200 mg (22), 0-4 hr",18%
same,Efficacy: Percent conversion,"[5]; 200 mg (22), 0-8 hr",45%
same,Efficacy: Percent conversion,"[5]; 200 mg (22), 0-24 hr",59%
same,Efficacy: Percent conversion,"[5]; 300 mg (25), 0-4 hr",40%
same,Efficacy: Percent conversion,"[5]; 300 mg (25), 0-8 hr",52%
same,Efficacy: Percent conversion,"[5]; 300 mg (25), 0-24 hr",64%
same,Efficacy: Percent conversion,"[5]; 400 mg (25), 0-4 hr",52%
same,Efficacy: Percent conversion,"[5]; 400 mg (25), 0-8 hr",76%
same,Efficacy: Percent conversion,"[5]; 400 mg (25), 0-24 hr",84%
same,"time to conversion to normal sinus rhythm, majority of patients",[5]; at a Cmax plasma concentration of more than 40 ng/ml,under 12 hours
same,Adverse events: serious adverse events,[6]; 200 mg (22),1 SAE
same,Adverse events: subjects reporting,[6]; 200 mg (22),4 (18%) subjects (%)
same,Adverse events: subjects reporting,[6]; 300 mg (25),7 (28%) subjects (%)
same,Adverse events: serious adverse events,[6]; 400 mg (25),1 SAE
same,Adverse events: subjects reporting,[6]; 400 mg (25),10 (40%) subjects (%)
same,tolerability,"[6]; 200, 300, 400 mg",well tolerated at all doses
